Source: the SangsterLogP compilation

assay: from Langlois, M.; Dubost, J.; Audry, E.; Dallet, P.; Colleter, J. (1989). Simultaneous determination of physicochemical constants usable in QSAR in a series of alpha-adrenergic amines. Analusis : chimie …

logP | Compound
3.69 | c1ccc2c3c([nH]c2c1)C(c1ccc2c(c1)OCO2)NCC3 (centres undefined)
3.16 | Fc1ccccc1C1NCCc2c1[nH]c1ccccc21 (centres undefined)
3.58 | Clc1ccc(C2NCCc3c2[nH]c2ccccc32)c(Cl)c1 (centres undefined)
3.47 | Clc1cccc(C2NCCc3c2[nH]c2ccccc32)c1 (centres undefined)
3.34 | Clc1cccc(Cl)c1C1NCCc2c1[nH]c1ccccc21 (centres undefined)
3.04 | O=[N+]([O-])c1cccc(C2NCCc3c2[nH]c2ccccc32)c1 (centres undefined)
3.38 | Clc1ccc(C2NCCc3c2[nH]c2ccccc32)cc1Cl (centres undefined)
3.33 | O=[N+]([O-])c1ccc(Cl)c(C2NCCc3c2[nH]c2ccccc32)c1 (centres undefined)
3.47 | c1ccc(C(CC2NCCc3c2[nH]c2ccccc32)c2ccccc2)cc1 (centres undefined)
